# Results taken from patent US7528140B2, “Substituted pyrrolo[3,2-d]pyrimidines as glycogen synthase kinase (GSK) inhibitors” (Teijin Limited, priority 2002, dated 2009).
# Target: recombinant human GSK-3β (Homo sapiens, UniProt P49841)
# Assay: Measurement of GSK-3 enzyme activity inhibition (32P phosphorylation of phospho-glycogen synthase peptide-2)
# Assay type: biochemical
# Settings: 20 μM ATP, 20 minutes at room temperature, read-out: GSK-3 enzyme inhibiting activity (IC50)
# Method: Measurement of GSK-3 Enzyme Activity Inhibition
# After adding 25 μL of phospho-glycogen synthase peptide-2 substrate solution [6 μM phospho -glycogen synthase peptide-2, 20 μM ATP, 16 mM MOPS buffer (pH 7.0), 0.2 mM EDTA, 20 mM magnesium acetate, 0.1 μCi [γ-^32P]ATP (specific activity: approximately 110 TBq/mmol)]to 5 μL of the test compound using 5% dimethylsulfoxide as the solvent, reaction was initiated by further addition of 20 μL of a GSK-3β enzyme solution [10 mU recombinant human GSK-3β, 20 mM MOPS buffer (pH 7.0), 1 mM EDTA, 0.1% polyoxyethylene lauryl ether (23 Lauryl Ether; Brij 35), 5% glycerol, 0.1% β-mercaptoethanol]. After conducting the reaction for 20 minutes at room temperature, an equivalent volume of a 200 mM phosphoric acid solution was added to quench the reaction, and 90 μL of the reaction product was adsorbed onto a MultiScreen PH plate (Millipore) and rinsed with a 100 mM phosphoric acid solution. After drying the plate, 30 μL of Micro Scint-O (Packard BioScience) was added, and the cpm was measured with a scintillation counter to determine the inhibiting activity. Phospho GS Peptide2 is […]P)-Glu-Asp-Glu-Glu-Glu (SEQ ID NO:1).
# Chain of recombinant human GSK-3β (P49841 whole entry): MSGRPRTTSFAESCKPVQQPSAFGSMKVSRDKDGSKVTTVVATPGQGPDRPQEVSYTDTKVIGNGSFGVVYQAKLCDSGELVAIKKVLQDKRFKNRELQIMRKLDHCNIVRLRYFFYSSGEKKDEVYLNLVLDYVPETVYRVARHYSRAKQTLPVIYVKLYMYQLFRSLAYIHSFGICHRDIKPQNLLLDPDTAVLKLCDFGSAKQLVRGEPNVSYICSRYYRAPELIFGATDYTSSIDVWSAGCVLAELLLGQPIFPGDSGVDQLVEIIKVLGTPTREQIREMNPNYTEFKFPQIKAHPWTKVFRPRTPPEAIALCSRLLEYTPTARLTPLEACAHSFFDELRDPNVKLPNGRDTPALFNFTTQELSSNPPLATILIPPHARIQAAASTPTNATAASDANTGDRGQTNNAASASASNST
row,IC50 [µM],SMILES
1,1 to 10,CN(C(=O)CCn1c(-c2ccccc2)c(C#N)c2nc[nH]c(=S)c21)c1ccccc1 [3-0099]
2,1 to 10,"Cn1cccc1-c1c(C#N)c2nc[nH]c(=S)c2n1CCN [1-0459, 5-(2-aminoethyl)-6-(1-methylpyrrol-2-yl)-4-thioxo-3-hydropyrrolo[3,2-d]pyrimidine-7-carbonitrile]"
3,1 to 10,Cc1c(C#N)c2nc[nH]c(=S)c2n1CCCc1ccccc1 [1-0323]
